Data published in US20020137929A1, “1 - (3-heterocyclylphenyl) isothiourea, -isourea, -guanidine and -amidine herbicidal agents” (Intellectual Property Department, BASF Aktiengesellschaft, priority 1998, published 2002).

Tests used:
CYPSE (Flatsedge) = test: Preemergence weed control under flooded paddy conditions; assay type: in vivo, Cyperus serotinus; settings: rated 3-4 weeks after treatment
Outline: (§1)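 Silt loam, seeds in top 0.5 cm; flood held 1.5-3 cm; test cpd as acetone/water 50/50 into flood water, ~0.0313-0.500 kg/ha a.i.; greenhouse 3-4 wk; visual 0-9 score vs control.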

[1] = tested on: GLXMAW (Soybean, Williams); test: Preemergence herbicidal evaluation; assay type: in vivo, Glycine max, (L.) Merr. cv Williams; settings: rated 4-5 weeks after treatment
Outline: (§2)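 Seeds were mixed with potting soil and planted on about one inch of soil, then sprayed with test compound in aqueous acetone at about 0.0156 to 0.500 kg per hectare. Plants grew under standard greenhouse care and were visually rated 0-9 against untreated controls 4-5 weeks post-treatment.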

GALAP (Galium) = test: Preemergence herbicidal evaluation; assay type: in vivo, Galium aparine; settings: rated 4-5 weeks after treatment
Outline: as §2

ABUTH (Velvetleaf) = test: Preemergence herbicidal evaluation; assay type: in vivo, Abutilon theophrasti; settings: rated 4-5 weeks after treatment
Outline: as §2

[2] = tested on: IPOHE (Morningglory, Ivyleaf); test: Postemergence herbicidal evaluation; assay type: in vivo, Ipomoea hederacea; settings: postemergence
Outline: (§3)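 Two-week-old seedlings sprayed with compound in 50/50 acetone/water plus 0.5% TWEEN 20, at about 0.0156 to 0.500 kg/ha, nozzle at 40 psi. Kept in greenhouse; rated visually 4-5 weeks after treatment on a 0-9 scale versus control, repeat tests averaged.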

ZEAMX (Corn, Field) = test: Postemergence herbicidal evaluation; assay type: in vivo, Zea mays; settings: postemergence
Outline: as §3

[3] = tested on: GLXMAW (Soybean, Williams); test: Postemergence herbicidal evaluation; assay type: in vivo, Glycine max, (L.) Merr. cv Williams; settings: postemergence
Outline: as §3

SETVI (Foxtail, Green) = test: Preemergence herbicidal evaluation; assay type: in vivo, Setaria viridis; settings: rated 4-5 weeks after treatment
Outline: as §2

AMBEL (Ragweed, Common) [4] = test: Preemergence herbicidal evaluation; assay type: in vivo, Ambrosia artemisifolia; settings: rated 4-5 weeks after treatment
Outline: as §2

AMBEL (Ragweed, Common) [5] = test: Postemergence herbicidal evaluation; assay type: in vivo, Ambrosia artemisifolia; settings: postemergence
Outline: as §3

[6] = tested on: SAGPY (Arrowhead (Pygmaea)); test: Preemergence weed control under flooded paddy conditions; assay type: in vivo, Sagittaria pygmaea; settings: rated 3-4 weeks after treatment
Outline: as §1

CASOB (Sicklepod) = test: Preemergence herbicidal evaluation; assay type: in vivo, Cassia obtusifolia; settings: rated 4-5 weeks after treatment
Outline: as §2

ECHCG (Barnyardgrass) = test: Preemergence herbicidal evaluation; assay type: in vivo, Echinochloa crus-galli; settings: rated 4-5 weeks after treatment
Outline: as §2

[7] = rate 0.0156 kg/ha, rating scale 0-9
[8] = rate 0.0313 kg/ha, rating scale 0-9
[9] = rate 0.0625 kg/ha, rating scale 0-9
[10] = rate 0.1250 kg/ha, rating scale 0-9
[11] = rate 0.2500 kg/ha, rating scale 0-9

## Cn1c(C(F)(F)F)cc(=O)n(-c2cc(N=C3SCC(=O)N3Cc3ccc(Cl)c(Cl)c3)c(Cl)cc2F)c1=O [Compound 144, 3-{4-Chloro-5-{[3-(3,4-dichlorobenzyl)-4-oxo-2-thiazolidinylidene]amino}-2-fluorophenyl}-1-methyl-6-(trifluoromethyl)-2,4(1H,3H)-pyrimidinedione]
CYPSE (Flatsedge); 0.0313 kg/ha
  herbicidal effect rating, CYPSE: 7.0
CYPSE (Flatsedge); 0.0625 kg/ha
  herbicidal effect rating, CYPSE: 7.0
CYPSE (Flatsedge); 0.1250 kg/ha
  herbicidal effect rating, CYPSE: 9.0
CYPSE (Flatsedge); 0.2500 kg/ha
  herbicidal effect rating, CYPSE: 9.0
[1]; [7]
  Preemergence herbicidal rating GLXMAW: 0.0
[1]; [8]
  Preemergence herbicidal rating GLXMAW: 0.0
[1]; [9]
  Preemergence herbicidal rating GLXMAW: 0.0
[1]; [10]
  Preemergence herbicidal rating GLXMAW: 0.0
[1]; [11]
  Preemergence herbicidal rating GLXMAW: 0.0
GALAP (Galium); [7]
  Preemergence herbicidal rating GALAP: 1.0
GALAP (Galium); [8]
  Preemergence herbicidal rating GALAP: 1.0
GALAP (Galium); [9]
  Preemergence herbicidal rating GALAP: 1.0
GALAP (Galium); [10]
  Preemergence herbicidal rating GALAP: 2.0
GALAP (Galium); [11]
  Preemergence herbicidal rating GALAP: 2.0
ABUTH (Velvetleaf); [7]
  Preemergence herbicidal rating ABUTH: 0.0
ABUTH (Velvetleaf); [8]
  Preemergence herbicidal rating ABUTH: 0.0
ABUTH (Velvetleaf); [9]
  Preemergence herbicidal rating ABUTH: 0.0
ABUTH (Velvetleaf); [10]
  Preemergence herbicidal rating ABUTH: 9.0
ABUTH (Velvetleaf); [11]
  Preemergence herbicidal rating ABUTH: 9.0
[2]; rate 0.0156 kg/ha
  Herbicidal rating IPOHE: 9.0
[2]; rate 0.0313 kg/ha
  Herbicidal rating IPOHE: 9.0
[2]; rate 0.0625 kg/ha
  Herbicidal rating IPOHE: 9.0
ZEAMX (Corn, Field); rate 0.0156 kg/ha
  Herbicidal rating ZEAMX: 4.0
ZEAMX (Corn, Field); rate 0.0313 kg/ha
  Herbicidal rating ZEAMX: 4.0
ZEAMX (Corn, Field); rate 0.0625 kg/ha
  Herbicidal rating ZEAMX: 4.5
[3]; rate 0.0156 kg/ha
  Herbicidal rating GLXMAW: 5.0
[3]; rate 0.0313 kg/ha
  Herbicidal rating GLXMAW: 5.5
[3]; rate 0.0625 kg/ha
  Herbicidal rating GLXMAW: 6.5
SETVI (Foxtail, Green); [7]
  Preemergence herbicidal rating SETVI: 0.0
SETVI (Foxtail, Green); [8]
  Preemergence herbicidal rating SETVI: 0.0
SETVI (Foxtail, Green); [9]
  Preemergence herbicidal rating SETVI: 2.0
SETVI (Foxtail, Green); [10]
  Preemergence herbicidal rating SETVI: 9.0
SETVI (Foxtail, Green); [11]
  Preemergence herbicidal rating SETVI: 9.0
AMBEL (Ragweed, Common) [4]; [7]
  Preemergence herbicidal rating AMBEL: 0.0
AMBEL (Ragweed, Common) [4]; [8]
  Preemergence herbicidal rating AMBEL: 0.0
AMBEL (Ragweed, Common) [4]; [9]
  Preemergence herbicidal rating AMBEL: 0.0
AMBEL (Ragweed, Common) [4]; [10]
  Preemergence herbicidal rating AMBEL: 4.0
AMBEL (Ragweed, Common) [4]; [11]
  Preemergence herbicidal rating AMBEL: 7.0
AMBEL (Ragweed, Common) [5]; rate 0.0156 kg/ha
  Herbicidal rating AMBEL: 7.0
AMBEL (Ragweed, Common) [5]; rate 0.0313 kg/ha
  Herbicidal rating AMBEL: 9.0
AMBEL (Ragweed, Common) [5]; rate 0.0625 kg/ha
  Herbicidal rating AMBEL: 9.0
[6]; 0.0313 kg/ha
  herbicidal effect rating, SAGPY: 0.0
[6]; 0.0625 kg/ha
  herbicidal effect rating, SAGPY: 0.0
[6]; 0.1250 kg/ha
  herbicidal effect rating, SAGPY: 2.0
[6]; 0.2500 kg/ha
  herbicidal effect rating, SAGPY: 4.0
CASOB (Sicklepod); [7]
  Preemergence herbicidal rating CASOB: 0.0
CASOB (Sicklepod); [8]
  Preemergence herbicidal rating CASOB: 0.0
CASOB (Sicklepod); [9]
  Preemergence herbicidal rating CASOB: 0.0
CASOB (Sicklepod); [10]
  Preemergence herbicidal rating CASOB: 1.0
CASOB (Sicklepod); [11]
  Preemergence herbicidal rating CASOB: 2.0
ECHCG (Barnyardgrass); [7]
  Preemergence herbicidal rating ECHCG: 0.0
ECHCG (Barnyardgrass); [8]
  Preemergence herbicidal rating ECHCG: 0.0
ECHCG (Barnyardgrass); [9]
  Preemergence herbicidal rating ECHCG: 0.0
ECHCG (Barnyardgrass); [10]
  Preemergence herbicidal rating ECHCG: 0.0
ECHCG (Barnyardgrass); [11]
  Preemergence herbicidal rating ECHCG: 1.0

## CCOC(=O)CN1C(=O)C(OC)SC1=Nc1cc(-n2c(=O)cc(C(F)(F)F)n(C)c2=O)c(F)cc1Cl (stereo not shown) [Compound 160, Ethyl 2-{{2-chloro-5-[3,6-dihydro-3-methyl-2,6-dioxo-4-(trifluoromethyl)-1(2H)-pyrimidinyl]-4-fluorophenyl}imino}-5-methoxy-4-oxo-3-thiazolidineacetate]
CYPSE (Flatsedge); 0.0313 kg/ha
  herbicidal effect rating, CYPSE: 3.0
CYPSE (Flatsedge); 0.0625 kg/ha
  herbicidal effect rating, CYPSE: 3.0
CYPSE (Flatsedge); 0.1250 kg/ha
  herbicidal effect rating, CYPSE: 3.0
CYPSE (Flatsedge); 0.2500 kg/ha
  herbicidal effect rating, CYPSE: 3.0
[1]; 0.0156 kg/ha
  Preemergence herbicidal rating GLXMAW: 1.0
[1]; 0.0313 kg/ha
  Preemergence herbicidal rating GLXMAW: 1.0
[1]; 0.0625 kg/ha
  Preemergence herbicidal rating GLXMAW: 1.0
[1]; 0.1250 kg/ha
  Preemergence herbicidal rating GLXMAW: 2.0
[1]; 0.2500 kg/ha
  Preemergence herbicidal rating GLXMAW: 9.0
[1]; 0.5000 kg/ha
  Preemergence herbicidal rating GLXMAW: 9.0
GALAP (Galium); 0.0156 kg/ha
  Preemergence herbicidal rating GALAP: 0.0
GALAP (Galium); 0.0313 kg/ha
  Preemergence herbicidal rating GALAP: 0.0
GALAP (Galium); 0.0625 kg/ha
  Preemergence herbicidal rating GALAP: 0.0
GALAP (Galium); 0.1250 kg/ha
  Preemergence herbicidal rating GALAP: 0.0
GALAP (Galium); 0.2500 kg/ha
  Preemergence herbicidal rating GALAP: 7.0
GALAP (Galium); 0.5000 kg/ha
  Preemergence herbicidal rating GALAP: 7.0
ABUTH (Velvetleaf); 0.0156 kg/ha
  Preemergence herbicidal rating ABUTH: 5.0
ABUTH (Velvetleaf); 0.0313 kg/ha
  Preemergence herbicidal rating ABUTH: 9.0
ABUTH (Velvetleaf); 0.0625 kg/ha
  Preemergence herbicidal rating ABUTH: 9.0
ABUTH (Velvetleaf); 0.1250 kg/ha
  Preemergence herbicidal rating ABUTH: 9.0
ABUTH (Velvetleaf); 0.2500 kg/ha
  Preemergence herbicidal rating ABUTH: 9.0
ABUTH (Velvetleaf); 0.5000 kg/ha
  Preemergence herbicidal rating ABUTH: 9.0
[2]; rate 0.0156 kg/ha
  Herbicidal rating IPOHE: 9.0
[2]; rate 0.0313 kg/ha
  Herbicidal rating IPOHE: 9.0
[2]; rate 0.0625 kg/ha
  Herbicidal rating IPOHE: 9.0
[2]; rate 0.1250 kg/ha
  Herbicidal rating IPOHE: 9.0
ZEAMX (Corn, Field); rate 0.0156 kg/ha
  Herbicidal rating ZEAMX: 6.5
ZEAMX (Corn, Field); rate 0.0313 kg/ha
  Herbicidal rating ZEAMX: 7.0
ZEAMX (Corn, Field); rate 0.0625 kg/ha
  Herbicidal rating ZEAMX: 7.0
ZEAMX (Corn, Field); rate 0.1250 kg/ha
  Herbicidal rating ZEAMX: 7.5
[3]; rate 0.0156 kg/ha
  Herbicidal rating GLXMAW: 5.0
[3]; rate 0.0313 kg/ha
  Herbicidal rating GLXMAW: 6.0
[3]; rate 0.0625 kg/ha
  Herbicidal rating GLXMAW: 7.0
[3]; rate 0.1250 kg/ha
  Herbicidal rating GLXMAW: 7.0
SETVI (Foxtail, Green); 0.0156 kg/ha
  Preemergence herbicidal rating SETVI: 0.0
SETVI (Foxtail, Green); 0.0313 kg/ha
  Preemergence herbicidal rating SETVI: 1.0
SETVI (Foxtail, Green); 0.0625 kg/ha
  Preemergence herbicidal rating SETVI: 7.0
SETVI (Foxtail, Green); 0.1250 kg/ha
  Preemergence herbicidal rating SETVI: 7.0
SETVI (Foxtail, Green); 0.2500 kg/ha
  Preemergence herbicidal rating SETVI: 7.0
SETVI (Foxtail, Green); 0.5000 kg/ha
  Preemergence herbicidal rating SETVI: 9.0
AMBEL (Ragweed, Common) [4]; 0.0156 kg/ha
  Preemergence herbicidal rating AMBEL: 7.0
AMBEL (Ragweed, Common) [4]; 0.0313 kg/ha
  Preemergence herbicidal rating AMBEL: 6.0
AMBEL (Ragweed, Common) [4]; 0.0625 kg/ha
  Preemergence herbicidal rating AMBEL: 9.0
AMBEL (Ragweed, Common) [4]; 0.1250 kg/ha
  Preemergence herbicidal rating AMBEL: 9.0
AMBEL (Ragweed, Common) [4]; 0.2500 kg/ha
  Preemergence herbicidal rating AMBEL: 9.0
AMBEL (Ragweed, Common) [4]; 0.5000 kg/ha
  Preemergence herbicidal rating AMBEL: 9.0
AMBEL (Ragweed, Common) [5]; rate 0.0156 kg/ha
  Herbicidal rating AMBEL: 7.0
AMBEL (Ragweed, Common) [5]; rate 0.0313 kg/ha
  Herbicidal rating AMBEL: 7.0
AMBEL (Ragweed, Common) [5]; rate 0.0625 kg/ha
  Herbicidal rating AMBEL: 9.0
AMBEL (Ragweed, Common) [5]; rate 0.1250 kg/ha
  Herbicidal rating AMBEL: 9.0
[6]; 0.0313 kg/ha
  herbicidal effect rating, SAGPY: 0.0
[6]; 0.0625 kg/ha
  herbicidal effect rating, SAGPY: 2.0
[6]; 0.1250 kg/ha
  herbicidal effect rating, SAGPY: 5.0
[6]; 0.2500 kg/ha
  herbicidal effect rating, SAGPY: 8.0
CASOB (Sicklepod); 0.0156 kg/ha
  Preemergence herbicidal rating CASOB: 0.0
CASOB (Sicklepod); 0.0313 kg/ha
  Preemergence herbicidal rating CASOB: 0.0
CASOB (Sicklepod); 0.0625 kg/ha
  Preemergence herbicidal rating CASOB: 2.0
CASOB (Sicklepod); 0.1250 kg/ha
  Preemergence herbicidal rating CASOB: 1.0
CASOB (Sicklepod); 0.2500 kg/ha
  Preemergence herbicidal rating CASOB: 7.0
CASOB (Sicklepod); 0.5000 kg/ha
  Preemergence herbicidal rating CASOB: 9.0
ECHCG (Barnyardgrass); 0.0156 kg/ha
  Preemergence herbicidal rating ECHCG: 0.0
ECHCG (Barnyardgrass); 0.0313 kg/ha
  Preemergence herbicidal rating ECHCG: 0.0
ECHCG (Barnyardgrass); 0.0625 kg/ha
  Preemergence herbicidal rating ECHCG: 1.0
ECHCG (Barnyardgrass); 0.1250 kg/ha
  Preemergence herbicidal rating ECHCG: 2.0
ECHCG (Barnyardgrass); 0.2500 kg/ha
  Preemergence herbicidal rating ECHCG: 9.0
ECHCG (Barnyardgrass); 0.5000 kg/ha
  Preemergence herbicidal rating ECHCG: 9.0
